Source: article PMC2813745, “A novel inhibitor of the PI3K/Akt pathway based on the structure of inositol 1,3,4,5,6-pentakisphosphate” (British Journal of Cancer, 2010)

Each compound was assayed on MCF7 (assay: Cell survival by cell counting, MCF7). Settings: MCF7, 72 h, 20 nM 4-OH Tamoxifen, 50 μM 2-O-Bn-InsP5 alone or in combination.
Type: cell-based, human
Protocol: Cells seeded in a 24-well plate were treated with the indicated compounds in serum free DMEM or DMEM containing 0.5% FBS (PC3). After 72 h, the number of surviving cells was assessed by manual cell counting or by using the cell counter CDA-500 (Sysmex, Milton Keynes, UK). Alternatively, after 48 h, the number of apoptotic cells was assessed by acridine orange/ethidium bromide assay as described ([Piccolo et al, 2004]; [Maffucci et al, 2005]). SRB test was carried out in SKOV-3 and PC3 seeded in 96-well plate (3800 cells per well or 5800 cells per well, respectively) after 72 h of treatment as described ([Cappella et al, 2001]).
Data are mean±s.e. of n=4 independent experiments carried out in duplicate. […] Data are mean±s.e. of n=5 independent experiments carried out in duplicate. […] Data are mean±s.e. of n=6 independent experiments carried out in duplicate. […] Data are mean±s.e. of n=2 independent experiments carried out in duplicate. In all cases (A–D), cells were treated for 72 h and the number of surviving cells was assessed by cell counting. […] In all cases (E, F), cells were treated for 72 h and the number of surviving cells was assessed by SRB assay and data are mean±s.e. of two experiments carried out in quadruplicate.

**Q.** Which “number of surviving cells” value does the source give for “4-hydroxy-tamoxifen [4-OH tamoxifen, reference compound]” here?
**A.** reduced the number of surviving cells

The compounds below were run against T1, PDK1 (Homo sapiens, UniProt O15530) (assay: SelectScreen kinase profiling: PDK1). Settings: 1 µM compound; [ATP] 100 µM; single point.
T1 sequence (O15530 1-556): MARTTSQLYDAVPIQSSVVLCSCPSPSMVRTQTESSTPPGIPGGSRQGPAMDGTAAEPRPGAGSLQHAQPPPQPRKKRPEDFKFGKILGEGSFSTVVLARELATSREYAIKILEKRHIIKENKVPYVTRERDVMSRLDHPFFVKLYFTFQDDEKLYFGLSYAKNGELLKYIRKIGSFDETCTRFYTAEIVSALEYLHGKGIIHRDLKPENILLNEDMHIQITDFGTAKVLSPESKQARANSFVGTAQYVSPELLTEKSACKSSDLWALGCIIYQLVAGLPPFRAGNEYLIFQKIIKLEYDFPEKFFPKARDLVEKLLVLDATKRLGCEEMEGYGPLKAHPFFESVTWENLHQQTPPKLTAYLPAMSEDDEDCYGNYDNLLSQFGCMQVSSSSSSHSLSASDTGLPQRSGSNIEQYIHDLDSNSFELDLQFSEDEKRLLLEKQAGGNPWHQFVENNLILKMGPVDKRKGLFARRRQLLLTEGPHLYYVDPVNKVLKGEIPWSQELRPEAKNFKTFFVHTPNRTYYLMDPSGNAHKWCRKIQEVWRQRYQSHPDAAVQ
Type: biochemical
Protocol: Effect of the indicated compounds on the activity of various kinases was assessed by SelectScreen Kinase Profiling Service (Invitrogen-Life Technologies, Paisley, UK). Assays were performed using 1 μM of the tested compounds and ATP concentration as indicated in the corresponding tables. In the case of […] a screen using 10 μM of the compound was also carried out, as indicated in the corresponding table.

**Q.** O=P(O)(O)O[C@H]1[C@H](OP(=O)(O)O)[C@@H](OP(=O)(O)O)[C@H](OP(=O)(O)O)[C@@H](OP(=O)(O)O)[C@H]1OP(=O)(O)O [Ins(1,2,3,4,5,6)P6] was tested. Which “% Inhibition Mean” value did it give?
**A.** 18%

**Q.** O=P(O)(O)O[C@H]1[C@H](O)[C@@H](OP(=O)(O)O)[C@H](OP(=O)(O)O)[C@@H](OP(=O)(O)O)[C@H]1O [Ins(1,3,4,5)P4] was tested. Which “% Inhibition Mean” value did it give?
**A.** 56%

**Q.** How did the “% Inhibition Mean” value turn out when O=P(O)(O)O[C@@H]1[C@H](O)[C@H](O)[C@@H](OP(=O)(O)O)[C@H](OP(=O)(O)O)[C@H]1O [Ins(1,4,5)P3] was run?
**A.** 17%

**Q.** For O=P(O)(O)O[C@H]1[C@H](OP(=O)(O)O)[C@@H](OP(=O)(O)O)[C@@H](O)[C@@H](O)[C@@H]1OP(=O)(O)O [Ins(1,4,5,6)P4], which “% Inhibition Mean” value is on record?
**A.** 33%

**Q.** Which “% Inhibition Mean” value does the source give for O=P(O)(O)O[C@H]1[C@H](OP(=O)(O)O)[C@@H](OP(=O)(O)O)[C@@H](O)[C@@H](O)[C@@H]1OP(=O)(O)O [Ins(3,4,5,6)P4] here?
**A.** 35%
